Legend:
[1] = system: CD44 expressing population (cancer stem cells) of MDA MB231 cells; test: Flow cytometry analysis (anti-CD44-PE / anti-CD24-FITC staining) of MDA MB231 breast cancer cells; format: cell-based; conditions: IC25 drug conc.; for effect on CD44 expressing cell population of MDA MB231 cells (quadrant plot): 48 hrs exposure; for activity on CD44 expressing cells (cancer stem cells population) of MDA MB231 cancer cells compared to standard therapeutic drug Cisplatin: 48 hrs, bar graph FIG. 5, versus Cisplatin
Experimental: MDA MB231 is a highly metastatic breast cancer cell line. Flow cytometry study was conducted to observe the effect of Ethyl-5-methyl-4-(phenylamino) thieno[2,3-d]pyrimidine-6-carboxylate and Ethyl-5-methyl-4-(4-methylphenyl)amino thieno[2,3-d]pyrimidine-6-carboxylate on MDA MB231 cells compared to standard therapeutic drug Cisplatin.
(§1) 1. […] In the quadrant plot upper left region (Q2-UL) only CD44 expressing cells were observed. In the quadrant plot upper right region (Q2-UR) CD44 and CD24 expressing cells were observed. In the quadrant plot lower left region (Q2-LL) […]. In the quadrant plot lower right region (Q2-LR) […].

[2] = system: CD44 expressing population (cancer stem cells) of DU145 cells; test: Flow cytometry analysis (anti-CD44-PE / anti-CD24-FITC staining) of DU145 prostate cancer cells; format: cell-based; conditions: IC25 drug conc.; for effect on CD44 expressing cell population of DU145 cells (quadrant plot): 48 hrs exposure; for activity on CD44 expressing cells (cancer stem cells population) of DU145 cancer cells compared to standard therapeutic drug Cisplatin: 48 hrs, bar graph FIG. 10, versus Cisplatin
Experimental: DU145 is a moderately metastatic prostate cancer cell line. Flow cytometry study was conducted to observe the effect of Ethyl-5-methyl-4-(phenylamino) thieno[2,3-d]pyrimidine-6-carboxylate and Ethyl-5-methyl-4-(4-methylphenyl)amino thieno[2,3-d]pyrimidine-6-carboxylate on DU145 cells compared to standard therapeutic drug Cisplatin.
as §1

Row | SMILES | effect on CD44 expressing cell population of MDA MB231 cells (quadrant plot) [1] | effect on CD44 expressing cell population of DU145 cells (quadrant plot) [2] | activity on CD44 expressing cells (cancer stem cells population) of MDA MB231 cancer cells compared to standard therapeutic drug Cisplatin [1] | activity on CD44 expressing cells (cancer stem cells population) of DU145 cancer cells compared to standard therapeutic drug Cisplatin [2]
1 | N.N.[Cl][Pt][Cl] [Cisplatin, reference compound] | did not have much effect | did not have much effect | – | –
2 | CCOC(=O)c1sc2ncnc(Nc3ccc(C)cc3)c2c1C [Ethyl-5-methyl-4-(4-methylphenyl)amino thieno[2,3-d]pyrimidine-6-carboxylate] | marked effect | marked effect | much better and enhanced activity | much better and enhanced activity
3 | CCOC(=O)c1sc2ncnc(Nc3ccccc3)c2c1C [Ethyl-5-methyl-4-(phenylamino) thieno[2,3-d]pyrimidine-6-carboxylate] | marked effect | marked effect | much better and enhanced activity | much better and enhanced activity

Reference: patent US20170022215A1, “Compounds for Eradicating or Inhibiting Proliferation of Cancer Stem Cells” (Godavari Biorefineries Limited, priority 2014, published 2017)
